From patent publication US6117890A, “Method for treating bipolar disorder” (Eli Lilly and Company, priority 1998, dated 2000) come the findings set out here.

Assay [1] relates to m4 receptors (CHO m4 cells). Nature of the assay: cAMP formation in CHO m4 cells treated with pertussis toxin. It is filed as cell-based. The text has this:
Muscarinic agonists stimulate the formation of CAMP up to 10 fold in CHO m4 cells treated with pertussisi toxin and the pharmacology is consistent with the mediation by m4 receptors. Eckols K. Soc. Neurosci Abstr., 21:2040 (1995).
(Changes in cAMP serve as a functional read-out for many G protein-coupled receptors.)

For assay [2], the target named is muscarinic receptors (3H-oxotremorine-M binding). Nature of the assay: 3H-oxotremorine-M binding study. The following applies: radioligand 3H-oxotremorine-M; read-out: inhibition constant (Ki) for binding of 3H-oxotremorine-M.

Turning to `CCCCCCOc1nsnc1C1=CCCN(C)C1` [xanomeline, 3-(4-hexyloxy-1,2,5-thiadiazol-3-yl)-1,2,5,6-tetrahydro-1-methylpyridine], in assay [1], the “stimulation of formation of cAMP” value is “efficaciously and potently stimulated the formation of cAMP”. For the same molecule, the Ki in assay [2] came to 2 nM.

By Ki is commonly meant a dissociation constant, usually derived from enzyme kinetics or from competition with a known ligand.
